# Where two headings read alike, the source gives them in different places.
# Tests used:
# platelets [1] = assay: Platelet aggregation of small cyclic disulfide and lactam peptides; format: cell-based; conditions: for potency against platelet aggregation relative to 8×: comparator 8×
# Procedure: (§1) Platelet aggregation was assessed using the method of Born, Nature 194:927-929 (1962), incorporated herein by reference. Briefly, the change in light transmission was measured through a stirred suspension of platelets in an aggregometer (Model 400 VS, Chrono-Log, Havertown, Pa., USA). […] In studies using thrombin, the PRP was gel-filtered on Sepharose 2B in divalent ion-free Tyrode's solution containing 2% BSA. For all studies, the reference standard was platelet-poor plasma, which was obtained by centrifuging PRP at 1000×g for 5 min.
# (§2) All aggregation studies were performed at 37° C. with a constantly stirred suspension of 3×10^8 platelets/mL. (Platelet count was determined with the aid of a hemacytometer.) Peptides and stimulants were added to these suspensions in 1% dilutions. The PRP and gel-filtered platelets were used within three hours from the time of blood collection.
# platelets [2] = assay: Ex vivo inhibition of platelet aggregation (Table IV); format: in vivo; conditions: dose per code
# Procedure: Using the method described in Example V to measure ex vivo inhibition of platelet aggregation and the method described in Example VII to measure bleeding, four additional peptides were tested. These peptides included 11J, 11Q, 11K and 11V.
# GP IIb/IIIa = GP IIb/IIIa (Homo sapiens, UniProt P05106+P08514); assay: Differential inhibition of ligand binding to GP IIb/IIIa; conditions: fibrinogen vs fibronectin and vitronectin
# GP IIb/IIIa, sequence (P08514 32-887 limits assumed): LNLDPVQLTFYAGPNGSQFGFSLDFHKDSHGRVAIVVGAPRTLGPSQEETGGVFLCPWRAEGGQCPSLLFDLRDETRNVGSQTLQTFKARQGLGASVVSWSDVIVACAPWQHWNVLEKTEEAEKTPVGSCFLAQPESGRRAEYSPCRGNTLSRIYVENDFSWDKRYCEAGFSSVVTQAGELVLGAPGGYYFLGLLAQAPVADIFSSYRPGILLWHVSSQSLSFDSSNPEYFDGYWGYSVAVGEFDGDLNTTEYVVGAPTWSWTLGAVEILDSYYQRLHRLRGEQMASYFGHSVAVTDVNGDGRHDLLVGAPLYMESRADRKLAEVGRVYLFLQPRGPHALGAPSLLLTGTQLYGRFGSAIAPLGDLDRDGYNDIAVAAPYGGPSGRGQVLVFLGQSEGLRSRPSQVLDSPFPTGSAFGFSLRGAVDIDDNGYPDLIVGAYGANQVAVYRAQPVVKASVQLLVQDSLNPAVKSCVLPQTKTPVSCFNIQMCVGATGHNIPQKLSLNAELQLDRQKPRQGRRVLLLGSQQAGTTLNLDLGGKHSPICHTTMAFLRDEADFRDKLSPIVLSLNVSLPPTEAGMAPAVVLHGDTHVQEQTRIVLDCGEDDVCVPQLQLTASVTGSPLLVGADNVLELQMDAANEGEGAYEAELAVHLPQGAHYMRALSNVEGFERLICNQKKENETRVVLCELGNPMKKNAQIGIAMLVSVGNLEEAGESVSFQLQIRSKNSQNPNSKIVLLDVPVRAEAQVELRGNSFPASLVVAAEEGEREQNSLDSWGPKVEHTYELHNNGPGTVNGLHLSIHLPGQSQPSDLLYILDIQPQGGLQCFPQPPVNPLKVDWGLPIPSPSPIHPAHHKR
# GP IIb/IIIa, sequence (P08514 891-1039 partner limits assumed): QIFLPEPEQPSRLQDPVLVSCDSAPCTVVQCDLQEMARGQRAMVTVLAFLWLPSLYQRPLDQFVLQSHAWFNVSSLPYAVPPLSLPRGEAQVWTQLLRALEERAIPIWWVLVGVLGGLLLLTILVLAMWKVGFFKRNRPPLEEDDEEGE
# GP IIb/IIIa, sequence (P05106 27-788): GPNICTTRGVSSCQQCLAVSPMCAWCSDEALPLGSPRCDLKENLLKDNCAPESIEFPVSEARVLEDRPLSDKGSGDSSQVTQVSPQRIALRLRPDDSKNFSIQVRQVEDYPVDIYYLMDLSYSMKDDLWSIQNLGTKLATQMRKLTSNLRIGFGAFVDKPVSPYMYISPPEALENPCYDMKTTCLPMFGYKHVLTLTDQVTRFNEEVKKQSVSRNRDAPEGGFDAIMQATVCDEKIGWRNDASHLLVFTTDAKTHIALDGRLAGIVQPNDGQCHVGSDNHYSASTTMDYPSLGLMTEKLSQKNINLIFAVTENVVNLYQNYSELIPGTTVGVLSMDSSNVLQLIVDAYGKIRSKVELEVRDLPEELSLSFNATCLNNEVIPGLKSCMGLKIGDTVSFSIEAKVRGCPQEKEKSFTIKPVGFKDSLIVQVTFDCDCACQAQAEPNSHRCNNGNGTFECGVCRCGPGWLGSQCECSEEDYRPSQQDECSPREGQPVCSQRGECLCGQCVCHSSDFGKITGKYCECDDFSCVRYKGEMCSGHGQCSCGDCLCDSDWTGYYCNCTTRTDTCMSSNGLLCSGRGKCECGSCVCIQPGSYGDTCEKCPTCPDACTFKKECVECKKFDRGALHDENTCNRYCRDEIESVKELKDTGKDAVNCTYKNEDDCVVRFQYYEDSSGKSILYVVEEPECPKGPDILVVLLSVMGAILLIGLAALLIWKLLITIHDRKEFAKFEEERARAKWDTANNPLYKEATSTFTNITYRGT
# platelets [3] = assay: Ex vivo platelet aggregation in canine coronary thrombosis model; design: species or system dog
# Procedure: For all ex vivo studies (see FIG. 3), control aggregation values were standardized to the percentages of light transmission observed in PRP and PPP samples (0% and 100%, respectively).
# (§3) Animals were randomly assigned to two treatment groups: vehicle control (i.e., normal saline) or RGD peptides at various concentrations. Peptides were administered intra-atrially in both bolus and continuous injections. Each bolus injection consisted of 0.5 to 10 mg/kg and was administered 15 minutes before application of the current. A continuous infusion of the same peptide was then started immediately after completion of this initial injection. Animals received a 25 μg/kg/min to 200 μg/kg/min infusion. The anti-thrombotic effects of the peptides were monitored until 30 minutes after the occurrence of a persistent, occlusive thrombus or five hours after the initiation of electrical stimulation (whichever resulted first). If an occlusive thrombus had not developed within four hours after the initiation of current, the peptide infusion was stopped.
# Platelet counts and ex vivo aggregation studies were performed one hour before and 1, 3, and 5 hours after application of anodal direct current.
# Platelet aggregation was also determined ex vivo at one, three, and five hours after current application. For these studies, arachidonic acid, or collagen was again used to stimulate the platelets.
# coronary thrombosis = assay: Electrically induced canine coronary thrombosis, time to full occlusion; format: in vivo, dog
# Procedure: Male mongrel dogs weighing 14 to 20 kg were selected based on proper aggregation of their platelets in response to arachidonic acid, collagen, and adenosine disphosphate (ADP) and based on similar weights and hemodynamic properties.
# Before surgery, the animals were anesthetized with sodium pentobarbital (30 mg/kg, i.v.) and then intubated and ventilated on room air with positive pressure using a respirator (Harvard Apparatus, S. Natick, Mass.) at a volume of 30 ml/kg and a frequency of 12 breaths/min. Surgery, performed under aseptic conditions, was begun with the placement of cannulae into the left carotid artery and jugular vein for monitoring arterial blood pressure (Statham P23 pressure transducer, Gould, Inc., Cardiovascular Products, Oxnard, Calif.) and administering intravenous fluids.
# The heart was exposed via a left thoracotomy through the 5th intercostal space. A 2-cm segment of the left circumflex coronary artery (LCCA) was isolated from surrounding tissue by blunt dissection. […] The intra-coronary electrode was constructed by attaching a 25-gauge hypodermic needle tip to a 30-gauge Teflon-insulated silver-coated copper wire. The mechanical occluder was constructed of stainless steel in a C shape with a Teflon screw (2 mm diameter) on top. It was adjusted to control vessel circumference and decrease the reactive hyperemic flow due to a 10-sec (full) occlusion by 50-70% without affecting basal coronary blood flow (FIG. 1). A monopolar epicardial electrode was sutured to the surface of the ventricle in the region of LCCA distribution to monitor ischemic changes in the electrocardiogram (ECG). The left atrium was cannulated with polythylene tubing for administration of the peptide. Continuous recordings of blood pressure, limb lead II ECG, epicardial electrogram, and mean and phasic LCCA blood flow were obtained on a Model 7 polygraph (Grass Instrument Co., Quincy, Mass.).
# One hour after the completion of surgery, a 100 micro-amp continuous anodal direct current delivered from a 9 volt nickel-cadmium battery was applied to the intimal surface of the LCCA. The anode of the battery was in series with a 250,000 ohm potentiometer and the intraluminal coronary artery electrode. The electric circuit was completed by placing the cathode in a subcutaneous site. Electrical stimulation was applied for three hours. At the conclusion of each experiment, the heart was fibrillated electrically and quickly removed, and the LCCA was dissected free as far as possible to verify he position of the implanted anodal electrode.
# as §3
# Coronary thrombosis was quantified as the time to full occlusion. The effects of the various peptide treatments on coronary thrombosis is illustrated in FIG. 4.
# [4] = test system: Gore-tex vascular graft thrombosis; assay: Platelet and fibrinogen uptake by Gore-Tex grafts, baboon ex vivo shunt; format: in vivo
# Procedure: Adult male baboons (weighing 16 to 25 kg) were used in these studies. These were sedated with ketamine hydrochloride (200 to 250 mg intramuscular injection) and maintained under anesthesia with sodium pentobarbital (50 to 75 mg administered intravenously as necessary).
# Twenty-four hours before the ex vivo shunt was established, platelets were isolated from 500 ml of blood from the test animal and labelled with ca. of 500 microcuries of indium-111 oxine (Medi+Physics, Emeryville, Calif.), which irreversibly and specifically binds to platelets with an efficiency of 50%. Immediately after labelling, these platelets were then injected back into the animal and allowed to circulate for 24 hours. Immediately before the start of the study, fibrinogen that had been isolated from the animal and labelled with iodine-131 (DuPont Nuclear, Boston, Mass.) was also injected back into the animal. Also at this time, baseline determinations of the clotting and template bleeding times were made, and blood samples were drawn for hematology studies.
# To establish the ex vivo shunt, the femoral artery and vein were percutaneously cannulated with introducer catheters (KMA Inc., Mansfield, Mass.). The catheters were then connected to medical-grade, heparin-coatedsilastic tubing (2.59 mm internal diameter, (Extracorporeal Medical Specialties, Inc., King of Prussia, Pa.). […] Finally, a 5 cm-long test segment of a 4 mm (internal diameter) vascular graft was inserted at the apex of the circuit. The graft used in these studies was Gore-tex (expanded polytetrafluoroethylene, (W. L. Gore and Associates, Inc., Flagstaff, Ariz.). An electromagnetic flow probe was then inserted into the tubing circuit to measure blood flow, which was maintained at 100 ml/min. by varying the resistance imported by a partially occluding screw clamp that was distal to the probe. Finally, a 5 cm-long test segment of a 4 mm (internal diameter) vascular graft was inserted at the apex of the circuit. The graft used in these studies was Gore-tex (expanded polytetrafluoroethylene, W. L. Gore and Associates, Inc., Flagstaff, Ariz.).
# Platelet deposition onto the grafts was monitored by dynamic scanning with a gamma camera (Sigma 400, Ohio Nuclear, Inc., Sohon, Ohio), which detects the gamma radiation emitted by the ^111 indium-labelled platelets. Once the circuit was in place, the animal was placed under this camera, and blood flow was initiated. Scans were then taken at the rate of one frame per two minutes for two hours. The data from these scans were collected on a dedicated Digital MDA computer (Maynard, Mass.). […]
# platelets [5] = assay: Ex vivo platelet aggregation in baboon PRP; conditions: animal 2; PRP at 0, 1, 2 h
# Procedure: At one- and two-hour time points, template bleeding times were measured, and blood samples were drawn to assess the hematology aggregation studies. Platelet aggregation studies were performed as described in Example V using ADP as the stimulus.
# In addition, platelet aggregation studies were conducted on PRP derived from the second animal. Whole blood was drawn at three time points (0, 1 and 2 hours) of both control and experimental shunts.
# platelets [6] = format: cell-based, human; conditions: ADP 10 μM, citrated PRP; unit only in text b178 (printed μm); read-out: ADP-Stimulated Aggregation
# Procedure: Platelet aggregation assays were performed following the methods of this Example or those of Example IX.G. Platelet aggregation was assessed using the method of Born, Nature 194:927-929 (1962), incorporated herein by reference. Briefly, the change in light transmission was measured through a stirred suspension of platelets in an aggregometer (Model 400 VS, Chrono-Log, Havertown, Pa., USA). Studies employing ADP were performed with platelet-rich plasma (PRP), which was obtained by low-speed centrifugation (200×g for 10 min.) of whole blood freshly drawn into trisodium citrate (at a final concentration of 11 mm). In studies using thrombin, the PRP was gel-filtered on Sepharose 2B in divalent ion-free Tyroda's solution containing 2% BSA. For all studies, the reference standard was platelet-poor plasma, which was obtained by centrifuging PRP at 1000×g for 5 min.
# All aggregation studies were performed at 37° C. with a constantly stirred suspension of 3×10^8 platelets/ml. (Platelet count was determined with the aid of a hemacytometer.) Peptides and stimulants were added to these suspensions in 1% dilutions. […]
# platelets [7] = assay: Thrombin-stimulated platelet aggregation (Table I); format: cell-based, human; conditions: thrombin 2 U/ml, gel-filtered platelets; unit only in text b178 (printed μm)
# Procedure: as §1, with “Platelet aggregation assays were performed following the methods of this Example or those of Example IX.G. Platelet” for “Platelet”, “Tyroda's” for “Tyrode's”
# as §2, with “platelets/ml.” for “platelets/mL.”
# Peptide anti-aggregation potencies were determined from dose-responsive curves for the inhibition of the maximum aggregation responses stimulated by physiologic doses of ADP (10 μm) and thrombin (2 U/ml).
# [8] = Peripheral blood flow (PBF) by laser doppler probe, rabbit ear; format: in vivo; conditions: time 10 min; bolus dose per drug
# Procedure: In an alternative series of experiments, (Table 2) PBF was measured quantitatively with a laser dopler flow probe (Perimed). The probe was positioned securely over the vascular bed of one ear and flow monitored continuously. Each inhibitor was infused and CBT measured in the opposing ear. No arterial catheter was placed for blood sampling, consequently XPA […] in these animals.
# As positive control, epinephrine was infused intravenously (1 mg over 2 minutes) at 60 minutes. The resulting vasoconstriction reduced flow to near 0 flow units within 5 minutes.
# [9] = animal 1, two bolus IV injections of 10 mg/kg
# [10] = animal 2, 10 mg/kg bolus IV plus 10 mg/kg/hr infusion for 2 h
substance,measurement,setting,value
(Myr)RGD(O-Me-Y)RC-NH2 [16A],potency against platelet aggregation relative to 8×,platelets [1],about two-fold more reactivity than 8×
same,IC50,platelets [1]; read-out: inhibited platelet aggregation with an IC50,0.12 µM
Ac-CNPKGD(Y-OMe)RC-NH2 [11Q],ex vivo inhibition of platelet aggregation (%),platelets [2],> 95%
Ac-CNPRGD(Y-OMe)(Nle)C-NH2 [11V],ex vivo inhibition of platelet aggregation (%),platelets [2],> 98%
Ac-CNPRGD(Y-OMe)AC-NH2 [11K],ex vivo inhibition of platelet aggregation (%),platelets [2],> 98%
Ac-CNPRGD(Y-OMe)EC-NH2 [11J],ex vivo inhibition of platelet aggregation (%),platelets [2],> 98%
Ac-CNPRGD(Y-OMe)RCNH2 [8x],differential inhibition of binding of ligands to GP IIb/IIIa,GP IIb/IIIa,inhibits the binding of fibrinogen to GP IIb/IIIa more than it inhibits the binding of fibronectin and vitronectin to the same integrin
G(Pen)GHRGDLRCA [2G],ex vivo ADP-stimulated aggregation,"platelets [3]; 10 mg/kg, 1, 3, 5 h",substantially inhibited
same,time to full occlusion (coronary thrombosis),coronary thrombosis; 10 mg/kg bolus plus infusion,did not significantly influence this frequency
same,reduction in 111In-platelet uptake by graft,[4]; [9],90%
same,reduction in 131I-fibrinogen uptake by graft,[4]; [9],79%
same,reduction in labelled fibrinogen uptake by graft,[4]; [10],78%
same,reduction in labelled platelet uptake by graft,[4]; [10],84%
same,ex vivo platelet response to ADP (10 μM),platelets [5],completely unresponsive
G(dPen)GHRGDLRCA,IC50,platelets [6],5.28 ± 0.7 µM
R2 (Pen)GHGDTPCA,IC50,platelets [7],2.7 µM
same,IC50,platelets [6],8.2 µM
R(Pen)GHRGDWRCR [4Q],ex vivo platelet activation by collagen,platelets [3]; 5 mg/kg,near-maximal inhibition
same,ex vivo platelet response to ADP and AA,"platelets [3]; 5 mg/kg, all three time points",completely unresponsive
same,ex vivo platelet responsiveness,"platelets [3]; 10 mg/kg, five-hour point",platelet responsiveness was slightly improved
same,"ex vivo platelet aggregation, all three stimuli","platelets [3]; 10 mg/kg, one- and three-hour time points",prevented platelet aggregation
same,time to full occlusion (coronary thrombosis),coronary thrombosis; 5 mg/kg,significantly prolonged the time to occlusion
same,thrombus formation,"coronary thrombosis; 5 mg/kg, circulating platelet levels one-third of normal",able to prevent thrombus formation
same,time to full occlusion (coronary thrombosis),coronary thrombosis; 10 mg/kg bolus plus infusion,completely prevented occlusion
same,PBF (units),[8],9 units
R(Pen)GRGDWPCR [4R],"ex vivo platelet response, all modes of stimulation","platelets [3]; 10 mg/kg, all time points",unresponsive to all modes of stimulation at all time points
same,time to full occlusion (coronary thrombosis),coronary thrombosis; 3 mg/kg,ineffective
same,time to full occlusion (coronary thrombosis),coronary thrombosis; 10 mg/kg bolus plus infusion,prevented occlusion throughout the duration of the study
RGD(O-Me-Y)RE-NH2 [21I],potency against platelet aggregation relative to 8×,platelets [1],about three-fold more reactive than 8×

# — patent publication US5780303A, “Method and composition for treating thrombosis” (priority 1995, dated 1998)
